Data as given in patent US8546371B2, “Nanoparticle formulated glycolipid antigens for immunotherapy” (Board of Regents, The University of Texas System, priority 2009, dated 2013).

Test system: NKT cells
Test: Repeated in vivo NKT cell stimulation, serum IFN-γ by ELISA
Parameters: species or system C57BL/6 mice
Details: for IFN-γ (serum): 1 μg αGalCer i.v., bled 24 hours after treatment, mean ± SD of three mice
Procedure: Nanoparticle containing 1 μg alpha-galactosylceramide was injected to C57BL6 mice, with non-conjugated nanoparticles as negative control. In parallel, we studied soluble form of alpha-galactosylceramide.
C57/BL6 mice were purchased from the Jackson Laboratory (Bar Arbor, Me.) and housed in M.D. Anderson Cancer Center animal facilities under standard pathogen free conditions abiding institutional guidelines. 6 weeks old C57BL/6 mice were used for all experiments. 3 mice per group were used for each experiment. 1 μg alpha-galactosylceramide, or nanoparticle formulated alpha-galactosylceramide in 200 μL PBS was intravenously injected (through tail vein) to each mouse. Mice were treated every 10 days for 3 times. 200 μL of PBS/1% DMSO was used as control.
Mice were bled at 24 hours after each drug treatment. Serum IFN-γ was measured by ELISA using a kit from BD Biosciences (San Jose, Calif.).

SMILES: CCCCCCCCCCCCCCCCCCCCCCCCCC(=O)N[C@@H](CO[C@H]1O[C@H](CO)[C@H](O)[C@H](O)[C@H]1O)[C@H](O)[C@H](O)CCCCCCCCCCCCCC [αGalCer, Alpha-galactosylceramide]
- IFN-γ secretion upon repeated stimulation (anergy of NKT cells) (3 treatments every 10 days, i.v.): caused IFN-γ secretion only at the first treatment and failed to induce upon subsequent stimulations
- IFN-γ (serum) (x1 injection): 2601 ± 257 pg/mL
- IFN-γ (serum) (x2 injection (every 10 days)): 65 ± 2 pg/mL
- IFN-γ (serum) (x3 injection (every 10 days)): 40 ± 11 pg/mL
